Experimental data taken from patent US20120245505A1, “INTRACAMERAL DEVICES FOR SUSTAINED DELIVERY” (priority 2009, published 2012).

What was measured:
[1] = Release of NaF from implanted intracameral device, HRA imaging; assay type: in vivo, New Zealand white (NZW) rabbit; conditions: rabbit eye
Protocol: FIGS. 11A-D illustrate a series of Heidelberg retina angiograph (HRA) images of diffusion from an implanted device. FIGS. 11A-D illustrate HRA images after 2 minutes, 5 minutes, 10 minutes and 20 minutes.
A device in accordance with the present disclosure was loaded with sodium fluorescein (NaF) in a polymeric delivery implant. A New Zealand white (NZW) rabbit had this device implanted in the sub-Tenon's space with the inner port extending into the anterior chamber.
FIG. 11 illustrates that in as little as 2 minutes after implantation, the NaF had begun to disperse into the anterior chamber. By 20 minutes, the NaF had substantially dispersed into most of the anterior chamber.

glaucoma = assay: Treatment of glaucoma with bimatoprost-coated intracameral implant; assay type: in vivo, human; conditions: person, intracameral implant coated with sustained release formulation, after 2 weeks
Source text: They have previously received topical therapy, but to no avail. Their vision is worsening as time progresses. […] After 2 weeks, the IOP is reduced.

[2] = tested on: age-related macular degeneration; assay: Treatment of macular degeneration with bimatoprost-coated intracameral implant; assay type: in vivo, human; conditions: person, end of 7-year follow up
Source text: A person has age-related macular degeneration and cataracts in both eyes. […] At the end of a 7-year follow up period the patient can have maintained vision in the both eyes of at least 20/32

iris = conditions: topical latanoprost (XALATAN); cited from earlier work

SMILES: O=C([O-])c1ccccc1-c1c2ccc(=O)cc-2oc2cc([O-])ccc12.[Na+].[Na+] [NaF, sodium fluorescein]
- time after implantation at which NaF had begun to disperse into the anterior chamber ([1]; FIG. 11, HRA images): ≤ 2 min
- time by which NaF had substantially dispersed into most of the anterior chamber ([1]; FIG. 11, HRA images): ≤ 20 min
- release of NaF into the anterior chamber (HRA imaging) ([1]; device with polymeric delivery implant in sub-Tenon's space, inner port extending into anterior chamber): sustained-release of NaF into the anterior chamber

SMILES: CCNC(=O)CCC/C=C\C[C@@H]1[C@@H](/C=C/[C@@H](O)CCc2ccccc2)[C@H](O)C[C@@H]1O [bimatoprost]
- IOP (glaucoma): reduced
- maintained vision in both eyes [2]: at least 20/32

SMILES: CC(C)OC(=O)CCC/C=C\C[C@@H]1[C@@H](CC[C@@H](O)CCc2ccccc2)[C@H](O)C[C@@H]1O [latanoprost]
- increase in brown pigment in the iris (iris): 5-15 % of human eyes
